Reference: patent US20160137639A1, “TRIAZOLE-ISOXAZOLE COMPOUND AND MEDICAL USE THEREOF” (JAPAN TOBACCO INC., priority 2012, published 2016)
Read-outs that look alike come from different tables or passages of the source.

Tests used:
human RORγ = target: T1, human RORγ (Homo sapiens, UniProt P51449); assay: Luciferase reporter gene assay of inhibitory effect against RORγ transcriptional activity (GAL4-hRORγ plasmid in CHO cells); type: cell-based
T1 construct: human, NM_005060.3 and from Ser253 to Lys518; expressed in transfected cells; host or cells: CHO cells (transient co-transfection with pG5-Luc reporter)
T1 sequence (P51449 253-518): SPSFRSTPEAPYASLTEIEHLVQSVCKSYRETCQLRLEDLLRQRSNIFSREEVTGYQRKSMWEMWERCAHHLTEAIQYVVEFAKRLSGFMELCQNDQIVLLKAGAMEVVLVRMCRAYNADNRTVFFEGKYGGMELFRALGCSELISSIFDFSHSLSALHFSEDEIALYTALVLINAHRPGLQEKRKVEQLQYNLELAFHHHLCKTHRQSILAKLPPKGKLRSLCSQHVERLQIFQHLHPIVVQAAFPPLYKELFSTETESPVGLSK

mouse RORγ = target: T2, mouse RORγ (Mus musculus, UniProt P51450); assay: Luciferase reporter gene assay of inhibitory effect against RORγ transcriptional activity (GAL4-mRORγ plasmid in CHO cells); type: cell-based
T2 construct: mouse, NM_011281.2 and from Ile251 to Lys516; expressed in transfected cells; host or cells: CHO cells (transient co-transfection with pG5-Luc reporter)
T2 sequence (P51450 251-516): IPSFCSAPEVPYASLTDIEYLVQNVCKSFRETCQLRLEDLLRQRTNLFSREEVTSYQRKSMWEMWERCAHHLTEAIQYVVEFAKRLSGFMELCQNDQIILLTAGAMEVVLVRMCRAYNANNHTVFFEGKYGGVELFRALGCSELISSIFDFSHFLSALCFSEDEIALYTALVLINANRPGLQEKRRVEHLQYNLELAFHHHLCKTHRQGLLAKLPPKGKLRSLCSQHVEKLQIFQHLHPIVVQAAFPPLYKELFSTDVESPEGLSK
Outline: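 Readout is intracellular luciferase after 2-day compound exposure (8 concentrations, 0.1% DMSO) in CHO cells expressing GAL4 fused to mouse RORγ LBD residues Ile251–Lys516 plus pG5-Luc reporter. EC50 fitted from %-of-control; points showing resazurin-detected cytotoxicity dropped.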

Structure (SMILES)	EC50 (human RORγ; read-out: LUC EC50 hRORg) [µM]	EC50 (mouse RORγ; read-out: LUC EC50 mRORg) [µM]	EC50 (human RORγ; read-out: LUC EC50 (μM) hRORg) [µM]	EC50 (mouse RORγ; read-out: LUC EC50 (μM) mRORg) [µM]
Cc1ccc(NC(=O)CC(CC(=O)N2CCCC2)c2nnc([C@H]3C[C@@H](CC(C)C)C3)n2C2CC2)c(C)c1 (mixture of isomers) [Example F-501]	< 3	< 3		
Cc1ccc(NC(=O)C[C@@H](CCO)c2nnc(CCCC(C)(C)C)n2CC(F)(F)F)c(C)c1 [Example F-379]			> 3	< 3
Cc1cc(C(F)(F)F)ccc1NC(=O)C[C@H](CCO)c1nnc([C@H]2C[C@@H](CC(C)C)C2)n1C1CC1 [Example F-546]	< 3	< 3		
CC(C)CCc1nnc(CCC(=O)NCc2cccc3cn[nH]c23)n1C1CC1 [Example F-150]			> 3	> 3
CCn1c(CC(C)C(=O)Nc2cccc3ccccc23)nnc1C1Cc2ccccc2C1 (racemic) [Example F-32]			< 3	< 3
CC(C)(C)C(F)(F)c1cc(-c2onc([C@@H](CCC(=O)O)CC(=O)Nc3ccc(Cl)cc3F)c2C2CC2)no1 [Example E-77]	< 3	< 3		
Cc1ccc(NC(=O)[C@H]2CNC[C@@H]2c2nnc(CCCC(C)(C)C)n2C2CC2)c(C)c1 (racemic) [Example F-449]			> 3	> 3
CC(C)(C)Cc1cc(-c2onc([C@@H](CCC(=O)O)CC(=O)Nc3ccc(F)cc3Cl)c2C2CC2)no1 [Example E-57]			< 3	< 3
CNC(=O)C(C)(C)CCc1nnc(CCC(=O)Nc2cccc(Cl)c2C)n1C1CC1 [Example F-231]			> 3	> 3
Cc1ccc(NC(=O)C[C@H](CCCO)c2noc([C@H]3C[C@@H](CC(C)(C)C)C3)c2C2CC2)c(Cl)c1 [Example F-672]	< 3	< 3		
Cc1ccc(NC(=O)CC(c2nnc([C@H]3C[C@@H](CC(C)C)C3)n2C2CC2)C2CN(C)C2)c(C)c1 (mixture of isomers) [Example F-469]			> 3	> 3
Cc1c(Cl)cccc1NC(=O)CC(CCN)c1nnc(CCCC(C)C)n1C1CC1 (racemic) [Example F-225]			> 3	> 3
Cc1ccc(NC(=O)C[C@H](CCCO)c2nnn([C@H]3C[C@@H](CC(C)(C)C(C)C)C3)c2C(F)(F)F)c(F)c1 [Example F-710]	< 3	< 3		
COc1ccc(F)cc1CNC(=O)CCc1nnc(CCC(C)C)n1C1CC1 [Example F-208]			> 3	> 3
CC(=O)N1C[C@@H](C(=O)Nc2ccc(C)cc2C)[C@H](c2nnc(-c3ccc(CC(C)C)cc3)n2C2CC2)C1 [Example F-407]			> 3	> 3
Cc1ccc(NC(=O)C[C@H](C[C@H](C)O)c2nnc([C@H]3C[C@@H](CC(C)C)C3)n2C2CC2)c(C)c1 [Example F-574]	< 3	< 3		
Cc1ccc(NC(=O)CCc2noc([C@H]3C[C@@H](CC(C)(C)C)C3)c2C2CC2)c(Cl)c1 [Example F-719]	< 3	< 3		
Cc1cccc(NC(=O)CCc2nnc(CCC(C)C)n2C2CC2)c1C [Example F-78]			> 3	< 3
CC(=O)N1C[C@H](C(=O)Nc2ccc(C)cc2C)[C@@H](c2nnc(C3CC3CC(C)C)n2C2CC2)C1 (mixture of isomers) [Example F-341]			< 3	< 3
CC(=O)NCCC(CC(=O)Nc1ccc(C)cc1C)c1nnc(CCCC(C)C)n1C1CC1 (racemic) [Example F-275]			> 3	> 3
Cc1ncccc1NC(=O)CCc1nnc(CCC(C)C)n1C1CC1 [Example F-91]			> 3	> 3
Cc1ccc(NC(=O)C[C@H](CCC(=O)O)c2noc(-c3cc(C(F)(F)CC(C)(C)C)on3)c2C2CC2)c(Cl)c1 [Example E-35]			< 3	< 3
Cc1c(Cl)cccc1NC(=O)CCc1nnc(CC(=O)OC(C)(C)C)n1C1CC1 [Example F-178]			< 3	< 3
CC(C)CCc1nnc(CCC(=O)NC2CCCCC2C)n1C1CC1 (stereo not drawn) [Example F-102]			> 3	> 3
